In brackets after ≈: the same amount, converted by molar mass.
What was measured:
Assay type in all cases: functional, cell-based
P388 = assay: Cytotoxicity against mouse P388 cells
A549 = assay: Cytotoxicity against human A549 cells
HT-29 = assay: Cytotoxicity against human HT-29 cells
SK-MEL-28 = assay: Cytotoxicity against human SK-MEL-28 cells

SMILES | IC50 (P388) [µg/mL] | IC50 (A549) [µg/mL] | IC50 (HT-29) [µg/mL] | IC50 (SK-MEL-28) [µg/mL]
C=C(CC[C@@H](C)[C@H]1CC[C@@H](C2=C[C@@H]3O[C@@]34C[C@@H](O)CC[C@]4(C)C2=O)[C@]1(C)CC=O)C(C)C | 1 (≈ 2.26 µM) | 1 (≈ 2.26 µM) | 1 (≈ 2.26 µM) | 1 (≈ 2.26 µM)
CC(=O)O[C@@H]1C[C@H]2[C@]3(C)CC[C@H]4C(C)(C)CCC[C@]4(C)[C@H]3C[C@@H](O)[C@]2(C)c2occc21 | 1 (≈ 2.33 µM) | 1 (≈ 2.33 µM) | 1 (≈ 2.33 µM) | 1 (≈ 2.33 µM)
CC(=O)O[C@H]1C[C@H]2[C@]3(C)CC[C@H]4C(C)(C)CCC[C@]4(C)[C@H]3C[C@@H](O)[C@]2(C)[C@H]2OC(=O)C=C12 | 5 (≈ 11.2 µM) | 5 (≈ 11.2 µM) | 5 (≈ 11.2 µM) | 5 (≈ 11.2 µM)
CC(C)[C@@H](C)/C=C/[C@@H](C)[C@H]1CC[C@@H](C2=C[C@@H]3O[C@@]34C[C@@H](O)CC[C@]4(C)C2=O)[C@]1(C)CC=O [3-O-DEACETYLLUFFASTEROL B] | 1 (≈ 2.26 µM) | 1 (≈ 2.26 µM) | 1 (≈ 2.26 µM) | 1 (≈ 2.26 µM)

— ChEMBL document CHEMBL1158904, “New metabolites from the sponge Spongia agaricina” (J Nat Prod, 1998)
